A short description of data set [1]: In vivo mouse pharmacokinetics, paired oral co-dosing, plasma and brain. Details: species or system mice. The settings on record: for Cmax / Tmax / AUC / concentration at 0.25 hr / concentration at 0.5 hr / concentration at 1 hr / concentration at 2 hr / concentration at 4 hr / concentration at 6 hr / Kp: 10 mg/kg po co-dosed; for AUC: 0.25-6 hr sampling; for Kp: brain/plasma, read-out: B/P AUC Ratio. The procedure:
In a first study, the compounds of Examples 2 to 6 are compared to the Compound of Formula A (Example 1) using standard procedures in mice. In each test, two compounds are co-dosed in a single animal and the relative pharmacokinetics in plasma and brain is determined. Each test compound is dissolved in polyethylene glycol 400 vehicle, and administered orally at a dose of 10 mg/kg. After single dose oral administration of the test compounds together, plasma and brain levels are measured at 0.25, 0.5, 1, 2, 4, and 6 hours post-dosing. The mean values for maximum concentration, time to maximum concentration, and Area Under the Curve (AUC) for both compounds are determined. The results are summarized in the tables below for various paired co-dosing experiments: […]

In data set [2] the test system is human hepatocyte. In words: In vitro human hepatocyte stability assay. In kind it is in vitro ADME. As to conditions: human hepatocytes. The procedure:
The compounds of Examples 1, 2, 5 and 6 are compared in a standard in vitro human hepatocyte stability assay run in duplicate. Compounds are provided as 1 M solutions in DMSO, and concentration of test compound is determined at 0.5, 1.0 and 4.0 hours after addition of the test compound. Results are shown below as a percentage of initial concentration.

The mark [3] stands for this setting: brain, read-out: Brain concentration.
The mark [4] stands for this setting: plasma, read-out: Plasma concentration.

Where two headings read alike, the source gives them in different places.

In the case of `[2H]c1nc([2H])n(CC(=O)[C@H]2CC[C@H]3[C@@H]4CC[C@H]5C[C@@](O)(COC([2H])([2H])[2H])CC[C@]5(C)[C@H]4CC[C@]23C)c1[2H]` [Example 4, 1-((3R,5S,8R,9S,10S,13S,14S,17S)-3-hydroxy-3-((methoxy-d3)methyl)-10,13-dimethylhexadecahydro-1H-cyclopenta[a]phenanthren-17-yl)-2-(1H-imidazol-1-yl-d3)ethan-1-one], in data set [1] (10 mg/kg po), the “brain exposure of drug compared to the non-deuterated compound of Example 1” value was “much higher” and the “brain/plasma AUC ratio compared to Example 1” value (“brain/plasma AUC ratio” below) is “much higher”. In addition, in data set [1] (brain), the Cmax – broadly, the peak of the concentration-time curve – is 6530 ng/g; the Tmax (usually the time at which the peak concentration occurs) worked out at 1 h; the AUC (in general, concentration integrated over time) was determined as 25000 ng·h/mL. Also, in data set [1] (setting [3]), the concentration at 0.25 hr amounted to 1710 ng/g, the concentration at 0.5 hr was determined as 5070 ng/g, the concentration at 1 hr was 6530 ng/g and the concentration at 2 hr was found to be 5480 ng/g. Also, in data set [1] (setting [3]), the concentration at 4 hr is 4200 ng/g and the concentration at 6 hr came to 1180 ng/g. Besides, the Kp in data set [1] amounted to 2.7. Also, in data set [1] (plasma), the Cmax came to 2520 ng/mL, the Tmax was 1 h and the AUC amounted to 9220 ng·h/mL. Further, in data set [1] (setting [4]), the concentration at 0.25 hr worked out at 896 ng/mL, the concentration at 0.5 hr was found to be 1490 ng/mL, the concentration at 1 hr worked out at 2520 ng/mL and the concentration at 2 hr was 1950 ng/mL. Moreover, in data set [1] (setting [4]), the concentration at 4 hr is 1600 ng/mL and the concentration at 6 hr was 423 ng/mL.
On to `[2H]C([2H])([2H])OC[C@@]1(O)CC[C@@]2(C)[C@@H](CC[C@@H]3[C@@H]2CC[C@]2(C)[C@@H](C(=O)Cn4ccnc4)CC[C@@H]32)C1` [Example 3, 1-((3R,5S,8R,9S,10S,13S,14S,17S)-3-hydroxy-3-((methoxy-d3)methyl)-10,13-dimethylhexadecahydro-1H-cyclopenta[a]phenanthren-17-yl)-2-(1H-imidazol-1-yl)ethan-1-one], for which, in data set [1] (10 mg/kg po), the “plasma and brain AUC values and B/P ratio compared to Example 1” value is “similar”. In data set [1] (brain), the Cmax worked out at 2620 ng/g, the Tmax is 1 h and the area under the curve (AUC) is 13200 ng·h/mL. Besides, in data set [1] (setting [3]), the concentration at 0.25 hr was 2200 ng/g, the concentration at 0.5 hr is 2000 ng/g, the concentration at 1 hr came out at 2620 ng/g and the concentration at 2 hr came out at 2370 ng/g. In addition, in data set [1] (setting [3]), the concentration at 4 hr was determined as 2200 ng/g and the concentration at 6 hr came out at 1980 ng/g. For the same compound, the Kp in data set [1] was determined as 1.2. For the same compound, in data set [1] (plasma), the Cmax worked out at 2420 ng/mL, the Tmax amounted to 1 h and the AUC is 11300 ng·h/mL. In data set [1] (setting [4]), the concentration at 0.25 hr amounted to 2170 ng/mL, the concentration at 0.5 hr was found to be 1570 ng/mL, the concentration at 1 hr is 2420 ng/mL and the concentration at 2 hr was determined as 2020 ng/mL. Further, in data set [1] (setting [4]), the concentration at 4 hr worked out at 1810 ng/mL and the concentration at 6 hr was found to be 1720 ng/mL.
As to `[2H]c1nc([2H])n(C([2H])C(=O)[C@@]2([2H])CC[C@H]3[C@@H]4CC[C@H]5C[C@@](O)(COC([2H])([2H])[2H])CC[C@]5(C)[C@H]4CC[C@@]32C)c1[2H]` (stereo partly drawn) [Example 6, 1-((3R,5S,8R,9S,10S,13S,14S,17S)-3-hydroxy-3-((methoxy-d3)methyl)-10,13-dimethylhexadecahydro-1H-cyclopenta[a]phenanthren-17-yl-17-d)-2-(1H-imidazol-1-yl-d3)ethan-1-one-2-d], in data set [1] (10 mg/kg po), the “brain exposure of drug compared to the non-deuterated compound of Example 1” value is recorded as “much higher” and the “brain/plasma AUC ratio” value is given as “much higher”. Moreover, in data set [1] (brain), the Cmax amounted to 5350 ng/g, the Tmax came to 1 h and the AUC is 22400 ng·h/mL. For the same compound, in data set [1] (setting [3]), the concentration at 0.25 hr came out at 3300 ng/g, the concentration at 0.5 hr is 5350 ng/g, the concentration at 1 hr came to 5300 ng/g and the concentration at 2 hr is 4880 ng/g. Moreover, in data set [1] (setting [3]), the concentration at 4 hr is 3060 ng/g and the concentration at 6 hr is 2110 ng/g. Besides, the Kp in data set [1] is 2.7. Besides, in data set [1] (plasma), the Cmax was 2120 ng/mL, the Tmax was determined as 1 h and the exposure (AUC) is 8200 ng·h/mL. In data set [1] (setting [4]), the concentration at 0.25 hr was 1410 ng/mL, the concentration at 0.5 hr amounted to 1850 ng/mL, the concentration at 1 hr amounted to 2120 ng/mL and the concentration at 2 hr is 1650 ng/mL. In addition, in data set [1] (setting [4]), the concentration at 4 hr is 1220 ng/mL and the concentration at 6 hr was 642 ng/mL. Moreover, in data set [2] (0 hr), the “percentage of initial concentration” value was determined as 100%. Moreover, the “percentage of initial concentration” value in data set [2] (0.5 hr) is recorded as 83%. In addition, the “percentage of initial concentration” value in data set [2] (1.0 hr) was determined as 69%. Besides, in data set [2] (4.0 hr), the “percentage of initial concentration” value is listed as 45%.
As to `[2H]C(C(=O)[C@@]1([2H])CC[C@H]2[C@@H]3CC[C@H]4C[C@@](O)(COC([2H])([2H])[2H])CC[C@]4(C)[C@H]3CC[C@@]21C)n1ccnc1` (stereo partly drawn) [Example 5, 1-((3R,5S,8R,9S,10S,13S,14S,17S)-3-hydroxy-3-((methoxy-d3)methyl)-10,13-dimethylhexadecahydro-1H-cyclopenta[a]phenanthren-17-yl-17-d)-2-(1H-imidazol-1-yl)ethan-1-one-2-d], in data set [1] (brain), the Cmax amounted to 5700 ng/g, the time to peak (Tmax) amounted to 1 h and the AUC was 23500 ng·h/mL. Further, in data set [1] (setting [3]), the concentration at 0.25 hr amounted to 3450 ng/g, the concentration at 0.5 hr came to 5540 ng/g, the concentration at 1 hr worked out at 5700 ng/g and the concentration at 2 hr was 5100 ng/g. Also, in data set [1] (setting [3]), the concentration at 4 hr was determined as 3180 ng/g and the concentration at 6 hr turned out to be 2240 ng/g. Further, the Kp in data set [1] came out at 2.6. Also, in data set [1] (plasma), the Cmax was determined as 2300 ng/mL, the Tmax amounted to 1 h and the area under the curve (AUC) was 8900 ng·h/mL. In data set [1] (setting [4]), the concentration at 0.25 hr turned out to be 1490 ng/mL, the concentration at 0.5 hr was 1960 ng/mL, the concentration at 1 hr came to 2300 ng/mL and the concentration at 2 hr was 1770 ng/mL. For the same compound, in data set [1] (setting [4]), the concentration at 4 hr was determined as 1340 ng/mL and the concentration at 6 hr was determined as 725 ng/mL. In addition, the “percentage of initial concentration” value in data set [2] (0 hr) amounted to 100%. Moreover, the “percentage of initial concentration” value in data set [2] (0.5 hr) stood at 83%. Also, the “percentage of initial concentration” value in data set [2] (1.0 hr) turned out to be 80%. In data set [2] (4.0 hr), the “percentage of initial concentration” value is listed as 52%.
For the compound `[2H]c1nc([2H])n(CC(=O)[C@H]2CC[C@H]3[C@@H]4CC[C@H]5C[C@@](O)(COC)CC[C@]5(C)[C@H]4CC[C@]23C)c1[2H]` [Example 2, 1-((3R,5S,8R,9S,10S,13S,14S,17S)-3-hydroxy-3-(methoxymethyl)-10,13-dimethylhexadecahydro-1H-cyclopenta[a]phenanthren-17-yl)-2-(1H-imidazol-1-yl-d3)ethan-1-one], in data set [1] (10 mg/kg po), the “brain exposure of drug compared to the non-deuterated compound of Example 1” value is recorded as “much higher” and the “brain/plasma AUC ratio” value is “much higher”. Moreover, in data set [1] (brain), the highest level (Cmax) was 7600 ng/g, the Tmax is 1 h and the AUC came to 29000 ng·h/mL. Besides, in data set [1] (setting [3]), the concentration at 0.25 hr was 1840 ng/g, the concentration at 0.5 hr is 5590 ng/g, the concentration at 1 hr is 7600 ng/g and the concentration at 2 hr was determined as 6340 ng/g. Besides, in data set [1] (setting [3]), the concentration at 4 hr came to 4890 ng/g and the concentration at 6 hr amounted to 1410 ng/g. Also, the Kp in data set [1] is 2.8. Also, in data set [1] (plasma), the Cmax was 2550 ng/mL, the Tmax came out at 1 h and the AUC was 10300 ng·h/mL. For the same compound, in data set [1] (setting [4]), the concentration at 0.25 hr worked out at 1180 ng/mL, the concentration at 0.5 hr was 1740 ng/mL, the concentration at 1 hr was 2550 ng/mL and the concentration at 2 hr was 2120 ng/mL. Further, in data set [1] (setting [4]), the concentration at 4 hr was determined as 1760 ng/mL and the concentration at 6 hr was determined as 774 ng/mL. In data set [2] (0 hr), the “percentage of initial concentration” value was determined as 100%. In addition, the “percentage of initial concentration” value in data set [2] (0.5 hr) was 105%. Besides, in data set [2] (1.0 hr), the “percentage of initial concentration” value was 107%. Further, the “percentage of initial concentration” value in data set [2] (4.0 hr) was found to be 92%.

These data come from US12325726B2, “Organic compounds” (priority 2018, dated 2025).
